Experimental data published in patent publication US20030055052A1, “FAP-activated anti-tumor compounds” (priority 2000, published 2003).

Target: T1, FAP (Homo sapiens, UniProt Q12884)
T1 construct: expressed in transfected cells; host or cells: human embryonic kidney 293 cells stably transfected with pFAP.38; cell extract used
T1 sequence (Q12884 1-760): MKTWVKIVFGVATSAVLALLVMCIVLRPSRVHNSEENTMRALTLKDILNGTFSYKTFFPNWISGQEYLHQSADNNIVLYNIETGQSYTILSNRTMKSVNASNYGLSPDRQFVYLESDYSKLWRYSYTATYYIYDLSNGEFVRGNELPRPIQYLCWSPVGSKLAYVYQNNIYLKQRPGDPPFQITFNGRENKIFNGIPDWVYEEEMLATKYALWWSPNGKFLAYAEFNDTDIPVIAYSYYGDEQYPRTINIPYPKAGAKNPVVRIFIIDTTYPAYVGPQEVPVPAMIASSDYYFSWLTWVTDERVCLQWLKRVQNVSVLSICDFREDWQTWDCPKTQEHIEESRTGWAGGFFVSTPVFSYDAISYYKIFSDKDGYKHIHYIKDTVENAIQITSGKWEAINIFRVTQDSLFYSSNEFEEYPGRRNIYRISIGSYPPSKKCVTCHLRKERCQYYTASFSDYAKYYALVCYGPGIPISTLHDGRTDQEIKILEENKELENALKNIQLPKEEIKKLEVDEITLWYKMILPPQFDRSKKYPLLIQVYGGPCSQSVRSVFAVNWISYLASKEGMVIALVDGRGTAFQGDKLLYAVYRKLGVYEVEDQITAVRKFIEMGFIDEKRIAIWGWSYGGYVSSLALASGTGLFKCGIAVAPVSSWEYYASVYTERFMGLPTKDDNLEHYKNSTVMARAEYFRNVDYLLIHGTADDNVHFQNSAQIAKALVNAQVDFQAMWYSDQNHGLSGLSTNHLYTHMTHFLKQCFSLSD
Assay: Assay for cleavage of AMCA substrates by FAP
Assay type: biochemical
Conditions: 1 ng FAP enzyme (FAP-transfected 293 cell extract), 20 μl 2.5 mM substrate, room temperature, 1 hour; control 293 extract subtracted
Method: Assay for Cleavage of AMCA Substrates by FAP:
Cell extract from 293 cells stably transfected with FAP prepared as described (see Park, et al., Fibroblast Activation Protein, a Dual Specificity Serine Protease expressed in human tumor stromal fibroblasts. (1999) J. Biol. Chem. 36505-12.). A similar extract was also prepared from parental 293 control cells without FAP. The FAP concentration in the FAP-transfected cell extract was estimated by immunoassay and 1 ng enzyme (diluted in buffer A) was used per assay. FAP-negative 293 control cell extract was used at the same dilution (also in buffer A) as a negative control. Substrate was initially dissolved in dimethylformamide at a concentration of 200 mM and diluted in buffer A to a final concentration of 2.5 mM. A few substrates were not soluble at this concentration and had to be diluted further.
10 μl 10% DMSO in buffer A
70 ll diluted FAP cell extract containing 1 ng FAP enzyme (OR control 293 cell extract without FAP)
Mix, incubate at room temperature for 1 hour, and measure fluorescence in Fluorostar fluorimeter at the following wavelengths:
AMCA conjugates: Excitation: 390 nm, Emission: 440 nm.
The fluorescence measured in the samples treated with control 293 control cell extracts without FAP is subtracted from the values measured in the samples treated with 1 ng FAP enzyme.

Row | Substance | Cleavage | Turnover
1 | Z-Thz-Ala-Gly-Pro-AMCA-OH | 1.11 µM | 0.22%
2 | Z-Imi-Ala-Gly-Pro-AMCA | 0.61 µM | 0.12%
